Experimental findings from patent publication US20160355530A1, “HEPATITIS C INHIBITORS AND USES THEREOF” (AbbVie Inc., priority 2010, published 2016) are described below.

For assay [1], the system named is HCV NS5B polymerase 1a-H77-C316Y. In words: biochemical. As to conditions: ratio of enzyme IC50s, 1a H77-C316Y / 1a H77. Also on record: species or system HCV genotype 1a. The method, boiled down:
(§1)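 Incorporation of [3H]UTP (0.284 μM), alongside 20 μM each CTP and ATP, into RNA copied from a 5 nM 2.1 kb genotype 1b negative-strand template was measured after 3 h at 30° C using purified His-tagged NS5B truncated at residue 570. Product was spermine-precipitated, filtered and scintillation-counted; nonlinear regression gave IC50.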

Assay [2] concerns the target T1, HCV NS5B polymerase 1a-H77 (Hepatitis C virus genotype 1a, UniProt P27958).
T1 construct: six-histidine tag; made in house; host or cells: E. coli
In words: biochemical. On the set-up: species or system HCV genotype 1a. Particulars: enzyme, strain 1a H77; read-out: HCV Polymerase Strain 1a H77 IC50. The procedure, abridged:
as §1

Assay [3] addresses T2, HCV NS5B polymerase 1a-H77-C316Y (Hepatitis C virus genotype 1a, UniProt P27958, C2736Y).
T2 construct: six-histidine tag; made in house; host or cells: E. coli
In words: biochemical. Also on record: species or system HCV genotype 1a. The method, boiled down: as §1

Assay [4] has as its system chimeric replicon with genotype 3a NS5B. In words: microbe, parasite or virus in culture. The class given is cell-based, HCV genotype 3a. Particulars: Hepatitis C virus, read-out: 3a chimera 5% FBS EC50.
In assay [5] the test system is chimeric replicon with genotype 2b NS5B. In words: microbe, parasite or virus in culture. As to conditions: Hepatitis C virus, read-out: 2b chimera 5% FBS EC50. The class given is cell-based, HCV genotype 2b.
Assay [6] has as its system HCV 1a-H77 subgenomic replicon. In words: microbe, parasite or virus in culture. The class given is cell-based, HCV genotype 1a. As to conditions: Hepatitis C virus, stable replicon. In general terms: A replicon is a self-replicating genome or part of one, used to study replication in cells.
For assay [7], the target named is T3, HCV NS5B polymerase 1b BK strain (Hepatitis C virus genotype 1b, UniProt P26663).
T3 construct: six-histidine tag; made in house; host or cells: E. coli
In words: HCV NS5B polymerase enzymatic inhibition assay, strain 1b BK. The format is biochemical. As to conditions: enzyme, strain 1b BK; read-out: HCV Polymerase Strain 1b BK IC50. The method, boiled down: as §1

Assay [8] has as its system HCV 1a-H77 transient subgenomic replicon in Huh-7 derived cell line. In words: microbe, parasite or virus in culture. The format is cell-based, HCV genotype 1a. As to conditions: Hepatitis C virus, Huh-7; transient replicon, 5% FBS; read-out: Transient Replicon 1a H77 5% FBS EC50. The procedure, abridged:
(§2)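 Subgenomic replicon RNA (no Neo gene) electroporated into Huh-7-derived cells, plated at 5×10^3 cells/well; a 4 h plate gauged transfection efficiency. Cells exposed to 3-fold compound dilutions (0.5% DMSO) for 4 days at 37° C, then lysed for luciferase readout; EC50 calculated.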

Assay [9] relates to HCV 1a-H77-C316Y transient subgenomic replicon in Huh-7 derived cell line. In words: microbe, parasite or virus in culture. The class given is cell-based, HCV genotype 1a. Particulars: for EC50: Hepatitis C virus, Huh-7, read-out: Transient Replicon 1a H77-C316Y 5% FBS EC50; for Transient Replicon Fold Resistance C316Y/1a: ratio of transient replicon EC50s, C316Y / 1a H77. The method, boiled down: as §2

The test system of assay [10] is chimeric replicon with genotype 4a NS5B. In words: microbe, parasite or virus in culture. The class given is cell-based, HCV genotype 4a. Particulars: Hepatitis C virus, read-out: 4a chimera 5% FBS EC50.
In assay [11] the test system is HCV 1b-BB7 subgenomic replicon. In words: microbe, parasite or virus in culture. The class given is cell-based, HCV genotype 1b. Particulars: Hepatitis C virus, stable replicon.
Assay [12] concerns chimeric replicon with 2a-J6CF-derived NS5B. In words: microbe, parasite or virus in culture. Particulars: Hepatitis C virus, read-out: 2a chimera 5% FBS EC50. The format is cell-based, HCV genotype 2a.
[13] abbreviates: 5% FBS, absence of human plasma, read-out: Stable Replicon 1a H77 5% FBS EC50.
Setting [14] is: strain 1a H77, 5% FBS + 40% human plasma, read-out: 1a H77 5% FBS + 40% Human Plasma EC50.
The mark [15] stands for this setting: strain 1a H77, 5% FBS, no human plasma, read-out: 1a H77 5% FBS EC50.
Where [16] appears, read: strain 1a H77, 5% FBS, read-out: 1a H77 5% FBS EC50.
Setting [17] is: strain 1b BB7, 5% FBS + 40% human plasma, read-out: 1b BB7 5% FBS + 40% Human Plasma EC50.
Setting [18] is: strain 1b BB7, 5% FBS, no human plasma, read-out: 1b BB7 5% FBS EC50.
[19] abbreviates: strain 1b BB7, 5% FBS, read-out: 1b BB7 5% FBS EC50.

Like-named read-outs stand apart in the source and are kept apart here.

T2 sequence (P27958 2421-2990 C2736Y): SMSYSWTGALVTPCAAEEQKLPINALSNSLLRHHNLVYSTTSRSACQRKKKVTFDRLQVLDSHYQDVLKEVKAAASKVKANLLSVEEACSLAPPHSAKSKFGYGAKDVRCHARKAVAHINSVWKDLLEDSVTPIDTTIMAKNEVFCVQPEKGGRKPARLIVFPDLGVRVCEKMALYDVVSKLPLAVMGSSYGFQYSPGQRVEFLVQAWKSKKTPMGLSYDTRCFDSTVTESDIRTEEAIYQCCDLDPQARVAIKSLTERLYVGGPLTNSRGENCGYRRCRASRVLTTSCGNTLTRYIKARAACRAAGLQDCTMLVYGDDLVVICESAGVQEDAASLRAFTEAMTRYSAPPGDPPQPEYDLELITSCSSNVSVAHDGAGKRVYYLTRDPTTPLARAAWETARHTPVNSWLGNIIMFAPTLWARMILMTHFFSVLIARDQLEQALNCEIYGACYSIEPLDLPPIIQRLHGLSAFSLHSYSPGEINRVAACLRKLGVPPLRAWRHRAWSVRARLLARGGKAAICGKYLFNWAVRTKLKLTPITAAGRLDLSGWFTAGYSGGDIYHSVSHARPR
T1 sequence (P27958 2421-2990): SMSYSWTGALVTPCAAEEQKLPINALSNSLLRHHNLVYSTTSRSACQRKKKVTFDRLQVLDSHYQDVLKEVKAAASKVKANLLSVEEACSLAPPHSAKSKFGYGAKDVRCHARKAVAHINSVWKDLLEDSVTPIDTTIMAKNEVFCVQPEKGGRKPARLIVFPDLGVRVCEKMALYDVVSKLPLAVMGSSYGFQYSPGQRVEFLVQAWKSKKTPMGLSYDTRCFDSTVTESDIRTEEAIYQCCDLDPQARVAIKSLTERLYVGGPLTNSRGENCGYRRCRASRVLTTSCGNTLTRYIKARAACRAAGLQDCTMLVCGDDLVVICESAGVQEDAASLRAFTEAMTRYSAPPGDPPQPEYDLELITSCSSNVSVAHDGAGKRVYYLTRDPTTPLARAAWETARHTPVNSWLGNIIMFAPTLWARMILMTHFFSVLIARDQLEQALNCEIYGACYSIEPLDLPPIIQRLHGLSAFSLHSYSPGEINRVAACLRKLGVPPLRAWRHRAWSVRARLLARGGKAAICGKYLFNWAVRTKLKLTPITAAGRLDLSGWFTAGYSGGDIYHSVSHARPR
T3 sequence (P26663 2420-2989): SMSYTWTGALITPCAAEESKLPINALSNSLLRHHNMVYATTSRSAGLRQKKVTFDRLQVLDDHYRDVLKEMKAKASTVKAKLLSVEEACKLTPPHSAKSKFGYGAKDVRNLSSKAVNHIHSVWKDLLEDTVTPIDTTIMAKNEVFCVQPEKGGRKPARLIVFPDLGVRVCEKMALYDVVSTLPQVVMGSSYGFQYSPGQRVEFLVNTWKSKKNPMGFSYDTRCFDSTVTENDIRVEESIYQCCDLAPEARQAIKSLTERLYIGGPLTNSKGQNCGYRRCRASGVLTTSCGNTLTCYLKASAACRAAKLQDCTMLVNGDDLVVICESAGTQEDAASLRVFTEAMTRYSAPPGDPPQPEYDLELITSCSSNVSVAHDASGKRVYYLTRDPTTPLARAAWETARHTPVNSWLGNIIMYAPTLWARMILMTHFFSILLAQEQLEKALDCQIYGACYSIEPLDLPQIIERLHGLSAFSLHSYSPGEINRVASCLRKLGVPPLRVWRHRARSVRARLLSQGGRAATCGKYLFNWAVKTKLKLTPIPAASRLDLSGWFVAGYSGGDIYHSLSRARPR

Regarding `Cc1c[nH]c(-c2c(-c3ccc(F)cc3)oc3cc(N(CCCCO)S(C)(=O)=O)c(C4CC4)cc23)n1` [Example 187, N-[5-cyclopropyl-2-(4-fluorophenyl)-3-(4-methyl-1H-imidazol-2-yl)-1-benzofuran-6-yl]-N-(4-hydroxybutyl)methanesulfonamide], the “C316Y/1a Fold Resistance” value in [1] turned out to be 6 fold. In addition, the values for the IC50 in assay [2], in [3] and in assay [7] were 25.8 nM, 159 nM and 168 nM, respectively. Also, the EC50 (as a rule, the concentration at which the effect is half-maximal) stood at 91.7 nM in [4]; 1000 nM in assay [5]; 41.9 nM in assay [6] (setting [13]); 409 nM in assay [6] (setting [14]); 41.9 nM in assay [6] (setting [15]); 41.9 nM in assay [6] (setting [16]). Moreover, the EC50 in [8] is 28.9 nM; in assay [9], 128 nM; in assay [10] it was over 1000 nM; in [11] (setting [17]), 244 nM; in assay [11] (setting [18]) it was 63.2 nM; in assay [11] (setting [19]), 63.2 nM. In assay [12], the EC50 amounted to 703 nM. In addition, the “Transient Replicon Fold Resistance C316Y/1a” value in assay [9] is recorded as 4 fold.
For `CS(=O)(=O)N(CCCO)c1cc2oc(-c3ccc(F)cc3)c(-c3ncc[nH]3)c2cc1C1CC1` [Example 65, N-[5-cyclopropyl-2-(4-fluorophenyl)-3-(1H-imidazol-2-yl)-1-benzofuran-6-yl]-N-(3-hydroxypropyl)methanesulfonamide], the “C316Y/1a Fold Resistance” value in assay [1] stood at 24 fold. Moreover, the results for the IC50 in assay [2], in [3] and in [7] were 6.9 nM, 166 nM and 52 nM, respectively. The EC50 in [4] stood at 4 nM; in assay [5], 68.5 nM; in assay [6] (setting [13]) it was 10.3 nM; in assay [6] (setting [14]) it was 121 nM; in assay [6] (setting [15]), 10.3 nM; in [6] (setting [16]), 10.3 nM. The EC50 in assay [8] was found to be 5.4 nM; in assay [9], 228 nM; in assay [10], 87.5 nM; in assay [11] (setting [17]), 59.5 nM; in [11] (setting [18]), 6.8 nM; in assay [11] (setting [19]), 6.8 nM. Moreover, the EC50 in [12] is 42.4 nM. The “Transient Replicon Fold Resistance C316Y/1a” value in [9] was 42 fold.
Turning to `CS(=O)(=O)N(CCCS(N)(=O)=O)c1cc2oc(-c3ccc(F)cc3)c(C3=NOCCN3)c2cc1C1CC1` [Example 124, 3-{[5-cyclopropyl-3-(5,6-dihydro-4H-1,2,4-oxadiazin-3-yl)-2-(4-fluorophenyl)-1-benzofuran-6-yl](methylsulfonyl)amino}propane-1-sulfonamide], the “C316Y/1a Fold Resistance” value in assay [1] worked out at 8 fold. Also, the IC50 (as a rule, the point on the concentration scale where inhibition reaches its midpoint) in assay [2] amounted to 4.5 nM; in assay [3], 37 nM; in assay [7] it was 29 nM. For the same compound, the EC50 in assay [4] was 139 nM; in assay [5], 1000 nM; in assay [6] (setting [13]), 44.3 nM; in assay [6] (setting [14]) it was 501 nM; in [6] (setting [15]), 44.3 nM; in assay [6] (setting [16]), 44.3 nM. Besides, the EC50 in assay [8] was determined as 33.4 nM; in [9], 276 nM; in [10], 962 nM; in assay [11] (setting [17]), 984 nM; in assay [11] (setting [18]) it was 44 nM; in assay [11] (setting [19]), 44 nM. In assay [12], the EC50 stood at 1000 nM. Further, the “Transient Replicon Fold Resistance C316Y/1a” value in assay [9] is on record as 8 fold.
`COc1ccc(CN(c2cc3oc(-c4ccc(F)cc4)c(C4=NOCN4)c3cc2C2CC2)S(C)(=O)=O)cc1` [Example 145, N-[5-cyclopropyl-3-(4,5-dihydro-1,2,4-oxadiazol-3-yl)-2-(4-fluorophenyl)-1-benzofuran-6-yl]-N-(4-methoxybenzyl)methanesulfonamide]: in assay [1], the “C316Y/1a Fold Resistance” value worked out at 333 fold. Moreover, the results for the IC50 in assay [2], in [3] and in assay [7] were 6 nM, 2000 nM and 35 nM, respectively. For the same compound, the EC50 turned out to be 163 nM in assay [4]; 836 nM in [5]; 134 nM in assay [6] (setting [13]); 1000 nM in assay [6] (setting [14]); 134 nM in [6] (setting [15]); 134 nM in assay [6] (setting [16]). Also, the EC50 was 100 nM in [8]; 1000 nM in assay [9]; over 1000 nM in assay [10]; 1000 nM in assay [11] (setting [17]); 80 nM in assay [11] (setting [18]); 80 nM in assay [11] (setting [19]). The EC50 in assay [12] was 372 nM. Moreover, the “Transient Replicon Fold Resistance C316Y/1a” value in assay [9] turned out to be 10 fold.
